Measured values reported in ChEMBL document CHEMBL1201862, “PubChem BioAssay data set” (2004).
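Method: 48-hour compound exposure of cells in 96-well plates, five concentrations, linear interpolation of endpoints. GI50 = concentration required for 50% inhibition of growth.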 Activity calls are given as the source filed them. No stated cut-off is given here; in the data, active = GI50 up to about 1.1 µM and inactive = higher.

How the values were obtained:
Experiment in all cases: NCI anticancer screen, dose series, 48 h
[1] = system: A549
[2] = system: ACHN
[3] = system: CCRF-CEM
[4] = system: COLO 205
[5] = system: HCC 2998
[6] = system: KM12
[7] = system: LXFL 529
[8] = system: NCI-H23
[9] = system: NCI-H460
[10] = system: OVCAR-3
[11] = system: SK-MEL-28
[12] = system: SK-MEL-2
[13] = system: SK-OV-3
[14] = system: SN12C
[15] = system: TK-10
[16] = system: UACC-257
[17] = system: UACC-62

In the case of `CCOC(=O)C1C(c2ccccc2)=C(c2ccccc2)C(c2ccccc2)=C1c1ccccc1`, the GI50 [1] is reported as 33.7 µM (inactive), the GI50 [2] is reported as 28.6 µM (inactive) and the GI50 [3] is reported as > 79.3 µM (inactive). The GI50 [4] was > 100 µM (inactive), the GI50 [5] was > 100 µM (inactive) and the GI50 [6] was > 100 µM (inactive). For the same compound, the GI50 [7] was 41.8 µM (inactive), the GI50 [8] was 34.2 µM (inactive) and the GI50 [9] was 51.8 µM (inactive). For the same compound, the GI50 [10] was 26.3 µM (inactive), the GI50 [11] was 54.1 µM (inactive) and the GI50 [12] was 26.9 µM (inactive). For the same compound, the GI50 [13] was 22.6 µM (inactive), the GI50 [14] was 50.7 µM (inactive) and the GI50 [15] was 23.4 µM (inactive). The GI50 [16] was > 94.6 µM (inactive) and the GI50 [17] was 19.3 µM (inactive).

`O=C(O)CS` [THIOGLYCOLIC ACID] was tested, and the GI50 [1] was > 100 µM (inactive), the GI50 [3] was > 100 µM (inactive) and the GI50 [4] was > 100 µM (inactive). The GI50 [5] was > 100 µM (inactive), the GI50 [6] was > 100 µM (inactive) and the GI50 [7] was > 100 µM (inactive). For the same compound, the GI50 [8] was > 100 µM (inactive), the GI50 [9] was > 100 µM (inactive) and the GI50 [11] was > 100 µM (inactive). For the same compound, the GI50 [12] was > 100 µM (inactive), the GI50 [13] was > 100 µM (inactive) and the GI50 [14] was > 100 µM (inactive). For the same compound, the GI50 [15] was > 100 µM (inactive), the GI50 [16] was > 100 µM (inactive) and the GI50 [17] was > 100 µM (inactive).

With `CCOC(=O)N1c2c(ccn2C)-c2ccn(C)c2N1C(=O)OCC` the GI50 [1] was 20.9 µM (inactive), the GI50 [2] was 15.8 µM (inactive) and the GI50 [3] was 2.64 µM (inactive). For the same compound, the GI50 [4] was 22.7 µM (inactive), the GI50 [5] was 19.6 µM (inactive) and the GI50 [6] was 19.9 µM (inactive). The GI50 [7] was 17.2 µM (inactive), the GI50 [9] was 19.4 µM (inactive) and the GI50 [10] was 14.1 µM (inactive). The GI50 [12] was 21.4 µM (inactive), the GI50 [13] was 30.6 µM (inactive) and the GI50 [14] was 15.8 µM (inactive). For the same compound, the GI50 [16] was > 10 µM (inactive) and the GI50 [17] was 16.7 µM (inactive).

For `Cc1ccc(-c2c(N)nc(NC#N)nc2CCC(=O)Nc2ccccc2[N+](=O)[O-])cc1`, the GI50 [1] was > 100 µM (inactive), the GI50 [2] was > 100 µM (inactive) and the GI50 [3] was > 100 µM (inactive). For the same compound, the GI50 [4] was > 100 µM (inactive), the GI50 [5] was > 100 µM (inactive) and the GI50 [6] was > 100 µM (inactive). For the same compound, the GI50 [7] was > 100 µM (inactive), the GI50 [8] was > 100 µM (inactive) and the GI50 [9] was > 100 µM (inactive). For the same compound, the GI50 [10] was > 100 µM (inactive), the GI50 [11] was > 100 µM (inactive) and the GI50 [12] was > 100 µM (inactive). For the same compound, the GI50 [13] was > 100 µM (inactive), the GI50 [14] was > 100 µM (inactive) and the GI50 [15] was > 100 µM (inactive). For the same compound, the GI50 [16] was > 100 µM (inactive) and the GI50 [17] was > 100 µM (inactive).

With `CCOc1ccc(NC2=NC(=O)C(CC(=O)Nc3ccc(Cl)cc3Cl)S2)cc1` (stereo not drawn) the GI50 [1] was > 100 µM (inactive), the GI50 [2] was > 100 µM (inactive) and the GI50 [3] was 21.6 µM (inactive). The GI50 [4] was > 100 µM (inactive), the GI50 [5] was > 100 µM (inactive) and the GI50 [6] was > 100 µM (inactive). For the same compound, the GI50 [7] was > 100 µM (inactive), the GI50 [8] was > 100 µM (inactive) and the GI50 [9] was > 100 µM (inactive). For the same compound, the GI50 [10] was > 100 µM (inactive), the GI50 [11] was > 100 µM (inactive) and the GI50 [12] was > 100 µM (inactive). The GI50 [13] was > 100 µM (inactive), the GI50 [14] was > 100 µM (inactive) and the GI50 [15] was > 100 µM (inactive). The GI50 [16] was > 100 µM (inactive) and the GI50 [17] was > 100 µM (inactive).

With `CCOC(=O)N[C@H]1CCc2cc(O)c(OC)c(OC)c2-c2ccc(SC)c(=O)cc21` the GI50 [1] was 0.0289 µM (active), the GI50 [2] was 0.069 µM (active) and the GI50 [3] was < 0.0139 µM (active). For the same compound, the GI50 [4] was 0.141 µM (active), the GI50 [5] was 0.113 µM (active) and the GI50 [6] was 0.0154 µM (active). The GI50 [7] was < 0.0122 µM (active), the GI50 [8] was 0.0157 µM (active) and the GI50 [9] was 0.0172 µM (active). For the same compound, the GI50 [10] was 0.0123 µM (active), the GI50 [11] was < 0.029 µM (active) and the GI50 [12] was < 0.0149 µM (active). For the same compound, the GI50 [13] was 0.24 µM (active), the GI50 [14] was 0.046 µM (active) and the GI50 [15] was 0.394 µM (active). The GI50 [16] was < 0.0491 µM (active) and the GI50 [17] was < 0.0144 µM (active).

In the case of `CCN1C(=O)C/C(=C\C(C)=O)Nc2ccccc21`, the GI50 [1] is reported as > 100 µM (inactive), the GI50 [3] is reported as > 100 µM (inactive) and the GI50 [4] is reported as > 100 µM (inactive). The GI50 [5] was > 100 µM (inactive), the GI50 [6] was > 100 µM (inactive) and the GI50 [7] was > 100 µM (inactive). For the same compound, the GI50 [8] was > 100 µM (inactive), the GI50 [9] was > 100 µM (inactive) and the GI50 [10] was > 100 µM (inactive). The GI50 [11] was > 100 µM (inactive), the GI50 [12] was > 100 µM (inactive) and the GI50 [13] was > 100 µM (inactive). The GI50 [14] was 0.166 µM (active), the GI50 [15] was > 100 µM (inactive) and the GI50 [17] was > 100 µM (inactive).

With `Cn1c2c(cc(-c3ccccc3)c1=O)COc1ccccc1-2` the GI50 [1] was 33.3 µM (inactive), the GI50 [2] was 24 µM (inactive) and the GI50 [3] was 30.5 µM (inactive). For the same compound, the GI50 [4] was 29 µM (inactive), the GI50 [5] was 24.8 µM (inactive) and the GI50 [6] was 13 µM (inactive). For the same compound, the GI50 [7] was 31.4 µM (inactive), the GI50 [8] was 26.9 µM (inactive) and the GI50 [9] was 20.3 µM (inactive). The GI50 [10] was 26.4 µM (inactive), the GI50 [11] was 24.1 µM (inactive) and the GI50 [12] was 14 µM (inactive). For the same compound, the GI50 [13] was 37.8 µM (inactive), the GI50 [14] was 35 µM (inactive) and the GI50 [16] was 36.9 µM (inactive). The GI50 [17] was 14.7 µM (inactive).
